Experimental data reported in publication PMC4177084 (Journal of Thyroid Research, 2014).

Experiments:
Nthy-ori 3-1 cells = test: Antiproliferation assay (WST-8); format: cell-based, human; details: Homo sapiens, 72 h; Nthy-ori 3-1 (normal thyroid), antiproliferative, 3 days
KIT(V654A) = molecular target: T1, KIT(V654A) (Homo sapiens, UniProt P10721, V654A); test: Cell free kinase inhibition assay; format: biochemical
T1 construct: purchased Carna Biosciences, Inc. (Kobe, Japan)

COT = molecular target: T2, COT (Homo sapiens, UniProt P41279); test: Cell free kinase inhibition assay; format: biochemical
T2 construct: purchased Carna Biosciences, Inc. (Kobe, Japan)
Protocol: (§1) […]. Briefly, each test compound was mixed with enzyme, substrate, ATP, and Mg under appropriate buffer conditions for the ELISA or MSA. […] IC50 values (the half maximal inhibitory concentration) were calculated from concentrations versus % inhibition curves.

FLT4/VEGFR3 = molecular target: T3, FLT4/VEGFR3 (Homo sapiens, UniProt P35916); test: Cell free kinase inhibition assay; format: biochemical
T3 construct: purchased Carna Biosciences, Inc. (Kobe, Japan)

CDK4 = molecular target: T4, CDK4 (Homo sapiens, UniProt P11802); test: Cell free kinase inhibition assay; format: biochemical
T4 construct: purchased Carna Biosciences, Inc. (Kobe, Japan)

FTC-236 cells = test: Antiproliferation assay (WST-8); format: cell-based, human; details: Homo sapiens, 72 h; FTC-236 (DTC), antiproliferative, 3 days; read-out: IC50
PIM1 = molecular target: T5, PIM1 (Homo sapiens, UniProt P11309); test: Cell free kinase inhibition assay; format: biochemical
T5 construct: purchased Carna Biosciences, Inc. (Kobe, Japan)

FRS2 = test: Western blot of FRS2 phosphorylation in RO82-W-1 xenografts; format: in vivo, nude mice; details: 2 h after single oral 3, 10, 30, or 100 mg/kg
RET = test: Western blot of RET phosphorylation in TT xenografts; details: 2 h after oral administration
FRK = molecular target: T6, FRK (Homo sapiens, UniProt P42685); test: Cell free kinase inhibition assay; format: biochemical
T6 construct: purchased Carna Biosciences, Inc. (Kobe, Japan)

RET (C634W) and ERK1/2 = test: Western blot of RET phosphorylation in TT cells; details: cultured TT cells, 1 h treatment
CSK = molecular target: T7, CSK (Homo sapiens, UniProt P41240); test: Cell free kinase inhibition assay; format: biochemical
T7 construct: purchased Carna Biosciences, Inc. (Kobe, Japan)

CHK1 = molecular target: T8, CHK1 (Homo sapiens, UniProt O14757); test: Cell free kinase inhibition assay; format: biochemical
T8 construct: purchased Carna Biosciences, Inc. (Kobe, Japan)

JAK2 = molecular target: T9, JAK2 (Homo sapiens, UniProt O60674); test: Cell free kinase inhibition assay; format: biochemical
T9 construct: purchased Carna Biosciences, Inc. (Kobe, Japan)

AKT1 = molecular target: T10, AKT1 (Homo sapiens, UniProt P31749); test: Cell free kinase inhibition assay; format: biochemical
T10 construct: purchased Carna Biosciences, Inc. (Kobe, Japan)

FLT3 = molecular target: T11, FLT3 (Homo sapiens, UniProt P36888); test: Cell free kinase inhibition assay; format: biochemical
T11 construct: purchased Carna Biosciences, Inc. (Kobe, Japan)

[1] = test system: FGFR1 and its downstream effectors (FRS2, MEK, ERK); test: Western blot of FGFR1 signaling in bFGF-stimulated RO82-W-1 cells; details: 1 h treatment, then bFGF 20 ng/mL and heparin 10 min
FTC-238 cells = test: Antiproliferation assay (WST-8); format: cell-based, human; details: Homo sapiens, 72 h; FTC-238 (DTC), antiproliferative, 3 days
KIT(V560G) = molecular target: T12, KIT(V560G) (Homo sapiens, UniProt P10721, V560G); test: Cell free kinase inhibition assay; format: biochemical
T12 construct: purchased Carna Biosciences, Inc. (Kobe, Japan)

KIT(D816V) = molecular target: T13, KIT(D816V) (Homo sapiens, UniProt P10721, D816V); test: Cell free kinase inhibition assay; format: biochemical
T13 construct: purchased Carna Biosciences, Inc. (Kobe, Japan)

TT xenograft = test: Human thyroid cancer xenograft model, tumor growth; format: in vivo, nude mice
Protocol: (§2) Nude mice (CAnN.Cg-Foxn1nu/CrlCrlj, female, 5-6 weeks old) were obtained from Charles River Laboratories Japan (Kanagawa, Japan). Mice were maintained under specific pathogen-free conditions and housed in barrier facilities on a 12 h light/dark cycle, with food and water ad libitum. All procedures using laboratory animals were done in accordance with all applicable institutional and government regulatory guidelines and policies and were performed in an animal facility accredited by the Center for Accreditation of Laboratory Animal Care of the Japan Health Sciences Foundation. Tumor cells were cultured in appropriate culture mediums. […] Then, 0.1-0.2 mL of the cell suspension was inoculated subcutaneously into the right flank region of each mouse. […] The tumor size was measured in two dimensions by using a caliper, and the volume was calculated by using the formula: tumor volume (mm^3) = 1/2 length (mm) × [width (mm)]^2. The change in tumor volume in the treated group relative to that in the control group was calculated according to the following formula: ΔT/C = (ΔT/ΔC) × 100%, where ΔT and ΔC are the change in tumor volume (i.e., growth) for the treated and vehicle control group, respectively. The percentage of tumor growth inhibition (%TGI) was calculated from the formula: [(1 − ΔT/ΔC) × 100].

K1 xenograft = test: Human thyroid cancer xenograft model, tumor growth; format: in vivo, nude mice; details: K1 xenograft, 1, 3, and 10 mg/kg oral once daily 14 days
Protocol: as §2

FGFR3(K650E) = molecular target: T14, FGFR3(K650E) (Homo sapiens, UniProt P22607, K650E); test: Cell free kinase inhibition assay; format: biochemical
T14 construct: purchased Carna Biosciences, Inc. (Kobe, Japan)

FLT1/VEGFR1 = molecular target: T15, FLT1/VEGFR1 (Homo sapiens, UniProt P17948); test: Cell free kinase inhibition assay; format: biochemical
T15 construct: purchased Carna Biosciences, Inc. (Kobe, Japan)

[2] = test system: CCDC-RET, human DTC TPC1 cell lines; details: cited from earlier work
SGK3 = molecular target: T16, SGK3 (Homo sapiens, UniProt Q96BR1); test: Cell free kinase inhibition assay; format: biochemical
T16 construct: purchased Carna Biosciences, Inc. (Kobe, Japan)

MET = molecular target: T17, MET (Homo sapiens, UniProt P08581); test: Cell free kinase inhibition assay; format: biochemical
T17 construct: purchased Carna Biosciences, Inc. (Kobe, Japan)

EPHB2 = molecular target: T18, EPHB2 (Homo sapiens, UniProt P29323); test: Cell free kinase inhibition assay; format: biochemical
T18 construct: purchased Carna Biosciences, Inc. (Kobe, Japan)

MLK1 = molecular target: T19, MLK1 (Homo sapiens, UniProt P80192); test: Cell free kinase inhibition assay; format: biochemical
T19 construct: purchased Carna Biosciences, Inc. (Kobe, Japan)

p70S6K = molecular target: T20, p70S6K (Homo sapiens, UniProt P23443); test: Cell free kinase inhibition assay; format: biochemical
T20 construct: purchased Carna Biosciences, Inc. (Kobe, Japan)

VEGFR, FGFR, KIT, PDGFR = test: Cell free kinase inhibition assay, summary for RTKs; format: biochemical; details: PDGFR (Supplementary Table S1)
Protocol: as §1

PDGFRα(V561D) = molecular target: T21, PDGFRα(V561D) (Homo sapiens, UniProt P16234, V561D); test: Cell free kinase inhibition assay; format: biochemical
T21 construct: purchased Carna Biosciences, Inc. (Kobe, Japan)

T11 sequence (P36888 27-993): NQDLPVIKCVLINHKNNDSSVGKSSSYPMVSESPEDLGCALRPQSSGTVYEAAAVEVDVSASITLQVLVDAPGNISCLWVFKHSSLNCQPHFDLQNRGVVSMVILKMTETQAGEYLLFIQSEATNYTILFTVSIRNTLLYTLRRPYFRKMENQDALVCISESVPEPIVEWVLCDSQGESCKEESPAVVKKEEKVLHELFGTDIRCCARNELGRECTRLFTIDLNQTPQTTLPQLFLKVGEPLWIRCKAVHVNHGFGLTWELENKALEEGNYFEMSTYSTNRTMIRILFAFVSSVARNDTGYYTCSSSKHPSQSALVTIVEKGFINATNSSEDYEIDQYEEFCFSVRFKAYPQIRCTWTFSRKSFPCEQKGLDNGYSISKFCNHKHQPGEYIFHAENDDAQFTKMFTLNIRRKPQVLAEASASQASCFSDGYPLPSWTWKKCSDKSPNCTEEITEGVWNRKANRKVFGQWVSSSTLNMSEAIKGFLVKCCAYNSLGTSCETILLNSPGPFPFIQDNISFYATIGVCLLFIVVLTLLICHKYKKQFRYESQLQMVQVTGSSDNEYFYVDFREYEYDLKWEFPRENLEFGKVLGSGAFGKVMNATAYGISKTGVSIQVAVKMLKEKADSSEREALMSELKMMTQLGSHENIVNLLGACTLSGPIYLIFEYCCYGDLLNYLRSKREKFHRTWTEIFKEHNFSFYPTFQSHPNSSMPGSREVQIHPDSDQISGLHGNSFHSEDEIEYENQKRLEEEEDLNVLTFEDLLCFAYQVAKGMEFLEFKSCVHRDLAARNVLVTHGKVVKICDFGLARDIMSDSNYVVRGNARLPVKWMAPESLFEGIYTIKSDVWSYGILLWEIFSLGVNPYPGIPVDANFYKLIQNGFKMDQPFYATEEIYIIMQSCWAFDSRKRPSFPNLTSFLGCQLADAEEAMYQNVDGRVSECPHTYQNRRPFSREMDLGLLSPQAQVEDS
T3 sequence (P35916 25-1363): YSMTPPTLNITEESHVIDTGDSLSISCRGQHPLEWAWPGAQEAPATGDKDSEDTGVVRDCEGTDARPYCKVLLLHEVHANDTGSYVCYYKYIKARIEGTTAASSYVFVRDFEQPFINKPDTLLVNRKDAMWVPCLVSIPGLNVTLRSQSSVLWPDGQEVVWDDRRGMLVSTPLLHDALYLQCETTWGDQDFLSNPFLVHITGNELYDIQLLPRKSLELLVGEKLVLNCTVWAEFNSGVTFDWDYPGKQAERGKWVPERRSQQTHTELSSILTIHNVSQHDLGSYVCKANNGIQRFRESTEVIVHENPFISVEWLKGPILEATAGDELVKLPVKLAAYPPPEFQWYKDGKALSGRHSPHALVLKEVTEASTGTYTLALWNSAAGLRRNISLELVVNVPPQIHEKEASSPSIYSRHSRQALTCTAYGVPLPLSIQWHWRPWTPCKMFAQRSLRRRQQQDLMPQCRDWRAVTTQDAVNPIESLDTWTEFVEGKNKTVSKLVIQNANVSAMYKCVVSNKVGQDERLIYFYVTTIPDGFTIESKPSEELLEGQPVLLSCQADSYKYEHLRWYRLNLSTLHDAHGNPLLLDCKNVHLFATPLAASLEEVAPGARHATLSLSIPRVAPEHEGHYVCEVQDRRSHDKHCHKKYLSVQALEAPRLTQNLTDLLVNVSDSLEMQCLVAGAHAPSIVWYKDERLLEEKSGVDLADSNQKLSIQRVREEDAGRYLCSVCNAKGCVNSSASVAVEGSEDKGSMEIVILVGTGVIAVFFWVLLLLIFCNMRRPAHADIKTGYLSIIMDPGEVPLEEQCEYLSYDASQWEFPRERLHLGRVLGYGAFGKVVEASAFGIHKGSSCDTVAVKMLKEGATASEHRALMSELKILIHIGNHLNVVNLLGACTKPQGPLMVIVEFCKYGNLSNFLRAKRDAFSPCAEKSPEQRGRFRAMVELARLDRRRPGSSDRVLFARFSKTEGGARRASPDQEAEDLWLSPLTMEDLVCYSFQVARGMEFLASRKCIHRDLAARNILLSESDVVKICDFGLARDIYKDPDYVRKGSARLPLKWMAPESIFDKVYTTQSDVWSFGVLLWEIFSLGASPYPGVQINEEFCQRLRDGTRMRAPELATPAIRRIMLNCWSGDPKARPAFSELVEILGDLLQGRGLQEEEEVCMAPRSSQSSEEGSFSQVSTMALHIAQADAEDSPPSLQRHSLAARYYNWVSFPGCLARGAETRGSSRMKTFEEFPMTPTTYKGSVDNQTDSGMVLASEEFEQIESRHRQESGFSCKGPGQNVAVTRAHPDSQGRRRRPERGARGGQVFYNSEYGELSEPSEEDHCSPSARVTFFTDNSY
T18 sequence (P29323 19-1055): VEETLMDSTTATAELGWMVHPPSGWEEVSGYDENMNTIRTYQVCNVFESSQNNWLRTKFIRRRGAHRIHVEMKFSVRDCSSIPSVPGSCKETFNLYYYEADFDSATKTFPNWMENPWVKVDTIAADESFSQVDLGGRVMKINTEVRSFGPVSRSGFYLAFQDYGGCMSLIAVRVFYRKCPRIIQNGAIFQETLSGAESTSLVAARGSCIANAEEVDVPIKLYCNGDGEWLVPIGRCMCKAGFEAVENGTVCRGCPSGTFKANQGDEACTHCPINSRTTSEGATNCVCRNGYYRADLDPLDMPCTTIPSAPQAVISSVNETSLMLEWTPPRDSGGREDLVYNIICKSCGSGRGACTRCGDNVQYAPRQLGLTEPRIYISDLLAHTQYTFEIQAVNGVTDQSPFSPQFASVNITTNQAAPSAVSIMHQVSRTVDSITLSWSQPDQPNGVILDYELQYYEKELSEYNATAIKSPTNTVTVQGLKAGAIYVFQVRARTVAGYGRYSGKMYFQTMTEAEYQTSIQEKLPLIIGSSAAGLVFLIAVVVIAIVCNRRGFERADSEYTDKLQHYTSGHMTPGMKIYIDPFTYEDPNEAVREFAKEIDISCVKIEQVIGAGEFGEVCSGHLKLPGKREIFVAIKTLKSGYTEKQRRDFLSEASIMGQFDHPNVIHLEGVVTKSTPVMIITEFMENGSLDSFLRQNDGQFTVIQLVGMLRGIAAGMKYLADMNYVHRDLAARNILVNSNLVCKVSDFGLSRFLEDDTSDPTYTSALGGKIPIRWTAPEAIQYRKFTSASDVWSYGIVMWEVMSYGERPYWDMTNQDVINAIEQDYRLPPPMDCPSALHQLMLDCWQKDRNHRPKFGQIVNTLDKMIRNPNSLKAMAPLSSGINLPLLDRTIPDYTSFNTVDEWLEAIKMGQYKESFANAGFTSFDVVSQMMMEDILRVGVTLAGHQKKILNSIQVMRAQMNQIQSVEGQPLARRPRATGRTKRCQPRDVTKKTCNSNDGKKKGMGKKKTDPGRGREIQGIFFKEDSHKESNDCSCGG
T1 sequence (P10721 26-976 V654A): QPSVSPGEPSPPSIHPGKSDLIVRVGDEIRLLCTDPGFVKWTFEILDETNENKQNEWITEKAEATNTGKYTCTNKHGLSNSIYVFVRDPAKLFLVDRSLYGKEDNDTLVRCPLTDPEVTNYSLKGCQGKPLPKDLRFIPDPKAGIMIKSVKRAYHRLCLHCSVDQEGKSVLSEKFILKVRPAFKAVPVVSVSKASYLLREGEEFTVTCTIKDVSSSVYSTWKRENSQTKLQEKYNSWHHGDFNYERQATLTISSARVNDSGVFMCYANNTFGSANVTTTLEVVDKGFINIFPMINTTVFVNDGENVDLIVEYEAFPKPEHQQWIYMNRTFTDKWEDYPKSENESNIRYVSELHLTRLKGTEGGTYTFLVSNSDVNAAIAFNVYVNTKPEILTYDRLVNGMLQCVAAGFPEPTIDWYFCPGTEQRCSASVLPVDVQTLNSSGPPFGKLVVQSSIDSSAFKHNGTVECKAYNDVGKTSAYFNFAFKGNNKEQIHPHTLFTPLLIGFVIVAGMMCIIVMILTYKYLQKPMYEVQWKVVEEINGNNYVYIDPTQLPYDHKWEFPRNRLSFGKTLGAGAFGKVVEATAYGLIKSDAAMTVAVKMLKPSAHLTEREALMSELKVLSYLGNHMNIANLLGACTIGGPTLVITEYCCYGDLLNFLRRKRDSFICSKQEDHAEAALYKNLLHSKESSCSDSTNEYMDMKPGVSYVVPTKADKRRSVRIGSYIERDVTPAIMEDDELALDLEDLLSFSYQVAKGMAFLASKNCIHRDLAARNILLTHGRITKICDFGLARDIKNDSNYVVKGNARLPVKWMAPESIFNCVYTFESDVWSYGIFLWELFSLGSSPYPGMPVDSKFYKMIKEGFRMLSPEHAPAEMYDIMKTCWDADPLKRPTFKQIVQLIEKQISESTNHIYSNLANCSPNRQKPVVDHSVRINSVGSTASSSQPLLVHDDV
T4 sequence (P11802 whole entry): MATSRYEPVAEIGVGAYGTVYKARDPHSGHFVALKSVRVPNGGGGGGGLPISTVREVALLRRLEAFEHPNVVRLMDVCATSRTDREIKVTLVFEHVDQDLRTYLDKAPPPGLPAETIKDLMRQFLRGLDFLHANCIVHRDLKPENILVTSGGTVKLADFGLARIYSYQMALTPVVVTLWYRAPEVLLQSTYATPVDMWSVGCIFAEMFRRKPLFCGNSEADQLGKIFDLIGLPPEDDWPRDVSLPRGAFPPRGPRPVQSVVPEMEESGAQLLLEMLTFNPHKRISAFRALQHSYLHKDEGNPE
T4 sequence (P30281 whole entry partner): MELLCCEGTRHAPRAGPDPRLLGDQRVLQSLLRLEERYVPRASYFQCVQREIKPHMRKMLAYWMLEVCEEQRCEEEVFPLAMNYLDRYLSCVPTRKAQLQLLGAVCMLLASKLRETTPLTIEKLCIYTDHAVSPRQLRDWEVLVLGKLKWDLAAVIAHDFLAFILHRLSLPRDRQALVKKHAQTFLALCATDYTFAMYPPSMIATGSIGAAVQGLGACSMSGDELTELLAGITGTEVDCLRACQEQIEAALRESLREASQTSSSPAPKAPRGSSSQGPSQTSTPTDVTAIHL
T13 sequence (P10721 26-976 D816V): as the sequence (P10721 26-976 V654A) above, with A629V, D791V counted along it
T12 sequence (P10721 26-976 V560G): as the sequence (P10721 26-976 V654A) above, with V535G, A629V counted along it

Structure (SMILES): COc1cc2nccc(Oc3ccc(NC(=O)NC4CC4)c(Cl)c3)c2cc1C(N)=O [Lenvatinib, Lenvatinib mesilate]
- IC50 (Nthy-ori 3-1 cells): 15000 nM
- IC50 (KIT(V654A)): 520 nM
- IC50 (COT): > 10000 nM
- IC50 (FLT4/VEGFR3): 2.3 nM
- IC50 (CDK4): > 10000 nM
- IC50 (FTC-236 cells): 17000 nM
- IC50 (PIM1): > 10000 nM
- phosphorylation of FRS2 (FRS2): decreased
- RET phosphorylation (RET): inhibition of RET phosphorylation
- IC50 (FRK): 160 nM
- phosphorylation of RET and of ERK1/2 (RET (C634W) and ERK1/2): inhibited
- IC50 (CSK): 2600 nM
- IC50 (CHK1): > 10000 nM
- IC50 (JAK2): > 10000 nM
- IC50 (AKT1): > 10000 nM
- IC50 (FLT3): 4100 nM
- phosphorylation of FGFR1, FRS2, MEK, and ERK [1]: inhibited the phosphorylation of FGFR1 and of FRS2, MEK, and ERK, in a concentration-dependent manner
- IC50 (FTC-238 cells): 18000 nM
- IC50 (KIT(V560G)): 0.74 nM
- IC50 (KIT(D816V)): > 10000 nM
- tumor volume change (TT xenograft; TT xenografts, 100 mg/kg oral once daily 29 days): tumor shrinkage
- in vivo tumor growth (TT xenograft; TT xenografts, 10, 30, and 100 mg/kg oral once daily 29 days): inhibited in vivo tumor growth of TT xenografts in a dose-dependent manner
- antitumor activity (K1 xenograft): significant antitumor activity
- IC50 (FGFR3(K650E)): 110 nM
- IC50 (FLT1/VEGFR1): 4.7 nM
- phosphorylation of CCDC-RET, in vitro proliferation and in vivo tumor growth of TPC1 [2]: inhibits
- IC50 (SGK3): > 10000 nM
- IC50 (MET): 520 nM
- IC50 (EPHB2): 660 nM
- IC50 (MLK1): > 10000 nM
- IC50 (p70S6K): > 10000 nM
- IC50 (VEGFR, FGFR, KIT, PDGFR): < 100 nM
- IC50 (PDGFRα(V561D)): 25 nM
